PMC6588697, “Lugdunin amplifies innate immune responses in the skin in synergy with host- and microbiota-derived factors” (Nature Communications, 2019)
Several values for one entry are separate records, joined by “and”; a condition that tells them apart may be missing. Equal values may be shown once.

Legend:
HTEpCs = assay: Cytokine release into HTEpC supernatant (LEGENDplex / ELISA); assay type: cell-based, human; settings: 5 h, lugdunin 2 µM or Pam2Cys 100 ng/mL, two technical replicates, Fig 1f
mouse skin = assay: Immune cell composition of mouse skin after epicutaneous treatment (flow cytometry); assay type: in vivo, C57BL/6 WT, MyD88-ko, 5xTLR-ko mice; settings: for percentage of monocytes (Ly6C+Ly6G−) of CD11b+CD45+ live cells / percentage of neutrophils (Ly6C+Ly6G+) of CD11b+CD45+ live cells: Fig 3d
Experimental: Fig. 3 Epicutaneous lugdunin recruits phagocytic cells. a Schematic overview of the mouse experiments: 6–8-week-old female C5BL/6 wild-type (WT), MyD88-ko, or 5xTLR-ko mice were epicutaneously treated with 1.5 µg lugdunin or phosphate-buffered saline (PBS) as a control. After 24 h, mice were euthanized, immune cells were isolated from treated skin areas, and immune cell composition was analyzed by flow cytometry. b Shown is the mean percentage of CD45+ live cells in mouse skin of 10 C57BL/6 WT mice ± s.e.m. One mouse is represented as two dots analyzed by two different stainings. c Pie charts show the mean percentage of the different immune cell subsets in the skin of 10 WT mice after 24 h of PBS or lugdunin treatment. d Shown are representative flow cytometry data (left panel) and the mean percentage of neutrophils (Ly6C+Ly6G+) and monocytes (Ly6C+Ly6G−) pregated on CD11b+CD45+ live cells (see Supplementary Fig. 3a, f for the gating strategy) in mouse skin ± s.e.m. One dot represents one mouse. *P < 0.05. e Representative myeloperoxidase (MPO)-stained paraffin-embedded mouse skin sections. Scale bar, 100 µM. Source data are provided as a Source Data file TEXT PRINTED IN THE PICTURE: (c) PBS: NK cells: 21%; B cells: 0%; T cells: 10%; Dendritic cells: 8%; CD11b+ cells: 43%; Others: 18%; Macrophages: 73%; Monocytes: 15%; Neutrophils: 3%; Others: 9% | (c) Lugdunin: NK cells: 18%; B cells: 0%; T cells: 11%; Dendritic cells: 10%; CD11b+ cells: 45%; Others: 16%; Macrophages: 64%; Monocytes: 21%; Neutrophils: 6%; Others: 9% | (d) PBS: Monocytes 13,3 (WT); Neutrophils 2,51 (WT); Q4 83,6 (WT); Q3 0,53 (WT); Monocytes 2,34 (MyD88-ko); Neutrophils 0,95 (MyD88-ko); Q4 94,4 (MyD88-ko); Q3 2,27 (MyD88-ko); Monocytes 12,8 (5xTLR-ko); Neutrophils 0,88 (5xTLR-ko); Q4 85,0 (5xTLR-ko); Q3 1,32 (5xTLR-ko) | (d) Lugdunin: Monocytes 17,3 (WT); Neutrophils 11,1 (WT); Q4 70,6 (WT); Q3 0,99 (WT); Monocytes 3,14 (MyD88-ko); Neutrophils 0,54 (MyD88-ko); Q4 94,9 (MyD88-ko); Q3 1,41 (MyD88-ko); Monocytes 12,9 (5xTLR-ko); Neutrophils 1,74 (5xTLR-ko); Q4 84,3 (5xTLR-ko); Q3 1,06 (5xTLR-ko) DOUBTS OF THE COPYIST ABOUT THIS PICTURE: Panel c: the percentages are printed on the pie slices without cell-type names. They were matched to cell types only by the colour legend, so the match is not certain, especially among the blue shades of the lower pies. / PBS is the vehicle control, not a test substance. Its values are given because they are printed under that name. / Panel d: the quadrant numbers are in very small print, so 3, 5, 6, 8 and 9 cannot be told apart with certainty. / PBS WT, Monocytes 13,3: either 3 could be 8 / PBS WT, Neutrophils 2,51: 5 could be 6 / PBS WT, Q4 83,6: 8, 3 and 6 uncertain / PBS WT, Q3 0,53: 5 and 3 uncertain / PBS MyD88-ko, Monocytes 2,34: 3 could be 8 / PBS MyD88-ko, Neutrophils 0,95: 9 and 5 uncertain / PBS MyD88-ko, Q4 94,4: 9 uncertain / PBS 5xTLR-ko, Monocytes 12,8: 8 could be 3 / PBS 5xTLR-ko, Neutrophils 0,88: either 8 uncertain / PBS 5xTLR-ko, Q4 85,0: 8 and 5 uncertain / PBS 5xTLR-ko, Q3 1,32: 3 could be 8 / Lugdunin WT, Monocytes 17,3: 3 could be 8 / Lugdunin WT, Q4 70,6: 6 could be 8 / Lugdunin WT, Q3 0,99: either 9 uncertain / Lugdunin MyD88-ko, Monocytes 3,14: 3 could be 8 / Lugdunin MyD88-ko, Neutrophils 0,54: 5 could be 6 / Lugdunin MyD88-ko, Q4 94,9: either 9 uncertain / Lugdunin 5xTLR-ko, Monocytes 12,9: 9 could be 8 / Lugdunin 5xTLR-ko, Q4 84,3: 8 and 3 uncertain / Lugdunin 5xTLR-ko, Q3 1,06: 6 could be 8
To analyze the immune cell composition and cytokines in the skin, 15 µL containing 1.5 μg lugdunin or PBS as a control were epicutaneously applied for 24 h on the shaved back skin of C57BL/6 WT/MYD88-ko/5xTLR-ko mice. After 24 h, mice were euthanized and relevant skin areas or 4 mm skin punches were removed for immune cell analysis and LEGENDplex^TM (BioLegend) cytokine analysis. […]

[1] = 5xTLR-ko mice, 1.5 µg lugdunin 24 h, one value per mouse
[2] = MyD88-ko mice, 1.5 µg lugdunin 24 h, one value per mouse
[3] = WT mice, 1.5 µg lugdunin 24 h, one value per mouse

Lugdunin
CXCL8 concentration in supernatant (HTEpCs): 214.845 and 210.300
percentage of monocytes (Ly6C+Ly6G−) of CD11b+CD45+ live cells (mouse skin; [1]): completely impaired and 20.3% and 17.1% and 9.43% and 21.4% and 16.9% and 6.11% and 12.9%
percentage of neutrophils (Ly6C+Ly6G+) of CD11b+CD45+ live cells (mouse skin; [1]): completely impaired and 5.72% and 2.72% and 4.06% and 8.41% and 1.29% and 0.57% and 1.74%
percentage of CD45+ live cells in mouse skin (mouse skin; 10 WT mice, 1.5 µg lugdunin epicutaneous 24 h, each mouse two values (two stainings), Fig 3b): 14.9% and 13.5% and 14.7% and 11.7% and 14.6% and 11.5% and 13.9% and 11.3% and 13.1% and 10.2% and 12.2% and 10.7% and 12.3% and 10.1% and 6.9% and 8.55%
percentage of monocytes (Ly6C+Ly6G−) of CD11b+CD45+ live cells (mouse skin; [2]): completely impaired and 8.96% and 15.5% and 8.8% and 15.6% and 3.14% and 1.49% and 4.64% and 1.54%
percentage of neutrophils (Ly6C+Ly6G+) of CD11b+CD45+ live cells (mouse skin; [2]): completely impaired and 2.26% and 5.17% and 2.81% and 2.01% and 0.54% and 0.23% and 0.5% and 0.44%
percentage of monocytes (Ly6C+Ly6G−) of CD11b+CD45+ live cells (mouse skin; [3]): significantly enhanced recruitment and 15.8% and 17.3% and 13.3% and 8.16% and 21.5% and 17.9% and 10.5% and 16.5% and 16% and 7.28%
percentage of neutrophils (Ly6C+Ly6G+) of CD11b+CD45+ live cells (mouse skin; [3]): significantly enhanced recruitment and 2.57% and 6.43% and 4.87% and 2.11% and 8.34% and 11.1% and 2.51% and 1.25% and 4.02% and 5.05%
NK cells, % NK1.1+ cells of live CD45+ cells (mouse skin; WT mice, 1.5 µg lugdunin 24 h, one value per mouse, Supp Fig 3b): 17.7% and 16.5% and 19.9% and 14.6% and 15.5% and 15.6% and 22.8% and 24.4% and 19.7% and 17.2%
B cells, % CD19+ cells of live CD45+ cells (mouse skin; WT mice, 1.5 µg lugdunin 24 h, one value per mouse, Supp Fig 3c): 0% and 0.14% and 0.15% and 0.03% and 0.04% and 0.05% and 0.01% and 0.02%
Dendritic cells, % CD11c+ cells of live CD45+ cells (mouse skin; WT mice, 1.5 µg lugdunin 24 h, one value per mouse, Supp Fig 3e): 16.5% and 7.96% and 9.38% and 7.83% and 7.66% and 8.63% and 12.4% and 7.01% and 13.5% and 11.2%
CD11b+ cells, % of live CD45+ cells (mouse skin; WT mice, 1.5 µg lugdunin 24 h, one value per mouse, Supp Fig 3f): 25.3% and 49.5% and 44.6% and 53.3% and 45% and 48.5% and 39.3% and 50.8% and 43.6%
Macrophages, % F4/80+ cells of CD11b+ CD45+ live cells (mouse skin; WT mice, 1.5 µg lugdunin 24 h, one value per mouse, Supp Fig 3g): slightly reduced and 61.4% and 62.3% and 69.6% and 70.5% and 63.1% and 61.1% and 64.2% and 53.1% and 77.9%
T cells, % CD3+ cells of live CD45+ cells (mouse skin; WT mice, 1.5 µg lugdunin 24 h, one value per mouse, Supp Fig 3d): 14.9% and 10.6% and 8% and 7.67% and 10.1% and 12.6% and 9.79% and 11.5% and 8.32% and 13.4%
